Laboratory results published in PMC11784359 (Antimicrobial Agents and Chemotherapy, 2024).
≈ marks a conversion by molar mass, not a printed value. Where “and” joins values, the source holds several entries; their conditions need not be identical. Identical values can stand only once. Like-named read-outs stand apart in the source and are kept apart here. Marks after values point to notes of the source that are not given here.

Experiments:
[1] = system: Escherichia coli ATCC 25922; experiment: microbe, parasite or virus in culture; type: cell-based
[2] = system: Staphylococcus aureus ATCC 29213; experiment: microbe, parasite or virus in culture; type: cell-based
[3] = system: B. pseudomallei strain K96243; set-up: species or system Burkholderia pseudomallei; settings: in vivo
[4] = system: Burkholderia pseudomallei; experiment: microbe, parasite or virus in culture; type: cell-based
[5] = system: Pseudomonas aeruginosa ATCC 27853; experiment: microbe, parasite or virus in culture; type: cell-based
[6] = mouse, in vivo
[7] = system: Escherichia coli, Klebsiella pneumoniae, and Pseudomonas aeruginosa; settings: cited from earlier work
biothreat pathogens = type: cell-based
[8] = mouse, in vivo; remark: listed apart in the source

CC(C)(O/N=C(\C(=O)N[C@@H]1C(=O)N2C(C(=O)[O-])=C(C[n+]3ccccc3)CS[C@H]12)c1csc(N)n1)C(=O)O [Ceftazidime, ceftazidime, reference compound]
MIC ([1]; Escherichia coli, ATCC25922): 0.12 µg/mL (≈ 0.22 µM)
MIC ([2]; Staphylococcus aureus, ATCC29213): 8 µg/mL (≈ 14.6 µM)
Survival log-rank (Mantel–Cox) test P [3]: <0.0001^a
day average body weight started to decline again [3]: 11 days
day mean body weight began to recover [3]: > 5 days
survival at the end of the 29-day observation phase [3]: 20%
survival during the treatment phase [3]: 70%
MIC50 [4]: 2 µg/mL (≈ 3.66 µM)
MIC90 [4]: 8 µg/mL (≈ 14.6 µM)
MIC ([4]; NCTC4845): 2 µg/mL (≈ 3.66 µM)
MIC ([5]; Pseudomonas aeruginosa, ATCC27853): 1 µg/mL (≈ 1.83 µM)

C[C@@](O)(C(F)F)[C@H](NC(=O)c1ccc(C#CC#CC2CC2)cc1)C(=O)NO [LPC-233]
MIC [1]: ≤0.008 µg/mL
MIC [2]: >16 µg/mL
concentration of the drug in ELF samples ([6]; 30 mg/kg): 100 to 400 ng/mL
increase in AUC, 100 mg/kg IP compared to oral 100 mg/kg ([6]; 100 mg/kg): 2 fold
increase in Cmax, 100 mg/kg IP compared to oral 100 mg/kg ([6]; 100 mg/kg): 2 fold
Inf fT > MIC (free time above MIC) ([6]; ip, 100 mg/kg): ≥6 h
Inf fT > MIC (free time above MIC) ([6]; po, 10 mg/kg): ≥6 h
Inf fT > MIC (free time above MIC) ([6]; po, 30 mg/kg): ≥6 h
Inf fT > MIC (free time above MIC) ([6]; po, 100 mg/kg): ≥6 h
predicted MIC shift based on plasma protein unbound fraction [7]: ~ 30 fold
shift of MIC values in the presence of 50% mouse plasma [7]: 4–9 fold
P, rescue of mice from infection in comparison with the vehicle [3]: < 0.0001
average body weight after recovery [3]: maintained a steady average weight to the end of the study
bacterial burden in the lungs at study termination compared to ceftazidime-treated animals [3]: reduction of CFUs in the lungs
day average body weight declined again [3]: 15 days and 25 days
day mean body weight began to recover (turning point) [3]: 4 days and 2 days
final survival rate at the end of the observation period [3]: 60% and 80% and 90%
median time to death [3]: 6.3 days
recovery of average body weight [3]: did not recover
survival [3]: did not support survival
survival during the treatment phase [3]: 100%
P range, survival/times to death versus the ceftazidime group ([3]; 30 mg/kg): 0.001–0.05
time following the last dose without deaths ([3]; 30 mg/kg): 15 days
Survival log-rank (Mantel–Cox) test P ([3]; 90 mg/kg): 0.5
Survival log-rank (Mantel–Cox) test P ([3]; ip, 90 mg/kg): <0.0001^a and 0.009^a
Survival log-rank (Mantel–Cox) test P ([3]; po, 10 mg/kg): <0.0001^a and 0.008^a
Survival log-rank (Mantel–Cox) test P ([3]; po, 30 mg/kg): <0.0001^a and 0.05^a
Survival log-rank (Mantel–Cox) test P ([3]; po, 90 mg/kg): <0.0001^a and 0.001^a
MIC90 values for biothreat pathogens, folds lower than previous compounds such as ACHN-975 (biothreat pathogens): 4–8 folds
Clearance [8]: 14.7 mL/min/kg
period plasma concentration remained above MIC90 [8]: ≥ 24 h
AUCELF (0–48 h) ([8]; 100 mg/kg): 334.6 µg·h/mL
AUCplasma (0–48 h) ([8]; 100 mg/kg): 398.6 µg·h/mL
ELF penetration (AUCELF/AUCplasma, 0–48 h) ([8]; 100 mg/kg): 83.9%
MIC [5]: 0.25 µg/mL (≈ 0.664 µM)
